Assay [1] addresses muscarinic receptors. In words: Radio ligand binding: displacement of muscarinic agonist 3H-Oxotremorine-M (3H-OXO-M) in rat cerebral cortex. Details: species or system Hooded Lister rats. As to conditions: displacement of 2 nM 3H-OXO-M; rat cerebral cortex membranes; 37° C., 30 min; 2 mM magnesium chloride; ^+ tested as the oxalate salt, ^++ tested as the hydrochloride salt.
The target in assay [2] is muscarinic receptors. It counts as binding, Hooded Lister rats. As to conditions: displacement of 0.27 nM 3H-QNB; rat cerebral cortex membranes; 37° C., 30 min; ^+ tested as the oxalate salt, ^++ tested as the hydrochloride salt.

Structures are written as SMILES. Read-outs that look alike come from different tables or passages of the source.

Regarding `c1cc(C2CN3CCC2CC3)on1` (racemic) [Example E1, (±) 3-(1,2-Oxazol-5-yl)-1-azabicyclo[2.2.2]octane], the concentration for half-maximal inhibition (IC50) was determined as 477 nM in assay [1] and 15.5 µM in assay [2].

With `Cc1cc(C2CN3CCC2CC3)on1` (racemic) [Example E6, (±)3-(3-Methyl-1,2-oxazol-5-yl)-1-azabicyclo[2.2.2]octane], the IC50 is 395 nM in assay [1] and 4.3 µM in assay [2].

Consider `Cc1ncc(C2CN3CCC2CC3)o1` (racemic) [Example E7, (±) 3-(2-Methyl-1,3-oxazol-5-yl)-1-azabicyclo[2.2.2]octane], for which the 50% inhibitory concentration (IC50) in assay [1] amounted to 105 nM; in assay [2], 4.4 µM.

In the case of `c1cc(C2CN3CCC2CC3)co1` (racemic) [Example E10, (±) 3-(Fur-3-yl)-1-azabicyclo[2.2.2]octane], the concentration for half-maximal inhibition (IC50) amounted to 834 nM in assay [1] and 19.5 µM in assay [2].

On to `c1ncc(C2CN3CCC2CC3)o1` (racemic) [Example E11, (±) 3-(1,3-Oxazol-5-yl)-1-azabicyclo[2.2.2]octane], for which the IC50 in assay [1] stood at 480 nM; in assay [2], 24 µM.

Regarding `c1ncc(C2CN3CCC2C3)o1` (racemic) [Example E12, (±) exo and endo-3-(1,3-Oxazol-5-yl)-1-azabicyclo[2.2.1]heptane], the IC50 turned out to be 150 nM in assay [1] and 29 µM in assay [2].

As for `CCc1ncc(C2CN3CCC2C3)o1` (racemic) [Example E14, (±) 3-(2-Ethyl-1,3-oxazol-5-yl)-1-azabicyclo[2.2.1]heptane], the concentration for half-maximal inhibition (IC50) is 800 nM in assay [1] and 9.6 µM in assay [2].

Turning to `c1coc([C@@H]2CN3CC[C@@H]2C3)c1` (relative stereo) [Example E4, (±) exo-3-(Fur-2-yl)-1-azabicyclo[2.2.1]heptane], the IC50 in assay [1] is 88 nM; in assay [2], 7 µM.

In the case of `Cc1ccc([C@@H]2CN3CC[C@@H]2C3)o1` (relative stereo) [Example E5, (±) exo-3-(5-Methyl-fur-2-yl)-1-azabicyclo[2.2.1]heptane], the half-inhibitory concentration (IC50) is 115 nM in assay [1] and 3.2 µM in assay [2].

In the case of `Cc1ncc([C@@H]2CN3CC[C@@H]2C3)o1` (relative stereo) [Example E8A, (±) exo- and endo-3-(2-Methyl-1,3-oxazol-5-yl)-1-azabicyclo[2.2.1]heptane], the IC50 in assay [1] is 24 nM; in assay [2], 7.5 µM.

`Cc1cc([C@@H]2CN3CC[C@@H]2C3)on1` (relative stereo) [Example E9, (±) exo-3-(3-Methyl-1,2-oxazol-5-yl)-1-azabicyclo[2.2.1]heptane]: the concentration for half-maximal inhibition (IC50) came to 102 nM in assay [1] and 7.5 µM in assay [2].

As to `c1cc([C@@H]2CN3CC[C@@H]2C3)on1` (relative stereo) [Example E13, (±) exo-3-(1,2-Oxazol-5-yl)-1-azabicyclo[2.2.1]heptane], the 50% inhibitory concentration (IC50) in assay [1] stood at 173 nM; in assay [2], 30.3 µM.

A word on the IC50: it is the concentration at which inhibition is half-maximal.

Source of the values: patent US5541194A (priority 1987, dated 1996).
